US20200268793A1, “METHODS AND COMPOSITIONS FOR ALLEVIATING CYTOKINE RELEASE SYNDROME” (MEMORIAL SLOAN-KETTERING CANCER CENTER, priority 2017, published 2020)
Entries after “also recorded” stand apart in the source; their conditions may differ. Like-named read-outs stand apart in the source and are kept apart here.

Legend:
[1] = system: SCID-beige mice with established intraperitoneal Raji tumors; assay: CRS mouse model: survival, weight change, toxicity and histopathology after CAR T cell transfer; assay type: in vivo; conditions: tumor bearing mice after 1928z CAR T cell transfer; for Toxicity as witnessed by weight loss (percent weight change) under treatment: 5 mg/kg intraperitoneally once per day; for CRS-associated mortality (percent survival) under treatment: agent given intraperitoneally once per day for 5 days
Protocol: Mice were treated under a protocol approved by the MSKCC Institutional Animal Care and Use Committee. CRS Model: 6-8 week old female C.B.Igh-1b/GbmsTac-Prkdc^scidLyst^bgN7 (SCID-beige) mice (Taconic) were intraperitoneally injected with 3 million Raji-GFP-Fluc cells and tumors were left to grow for 20 days. Tumor burden was evaluated by in vivo bioluminescent imaging two days prior to CAR T cell transfer. Outliers, mice with inconsistently higher or lower tumor burdens were excluded from the experiment. Mice were injected intraperitoneally with 30 million CAR^+ T cells in PBS supplemented with 2% Human Serum. Control mice received PBS supplemented with 2% Human Serum. Stress test model: 6-8 week-old male NOD.Cg-Prkdc^scidIl2rg^tmWjl/SzJ (NSG) mice (Jackson Laboratory) were inoculated with 0.5×10^6 NALM-6-GFP-Fluc cells by tail vein injection followed by with 0.2×10^6 or with 0.5×10^6 CAR T cells four days later. Bioluminescence imaging utilized the Xenogen IVIS Imaging System (Xenogen) with Living Image software (Xenogen) for acquisition of imaging datasets. Tumor Burden was assessed as previously described^34.
(§1) Anakinra was administered intraperitoneally at 30 mg/kg once per day for 5 days, starting 5 hours prior to CAR T cell transfer. Anti-murine IL-6 (clone MP5-20F3, BioXcell) and anti-murine IL-6R (clone 15A7, BioXcell) were administered intraperitoneally once per day at 25 mg/kg for the first dose and 12.5 mg/kg for subsequent doses for 5 days starting 5 hours prior to CAR T cell transfer. L-NIL (Enzo Life Sciences) or 1400W (Cayman Chemical) were administered intraperitoneally at 5 mg/kg once per day for 5 days starting 5 hours prior to CAR T cell transfer.
Mice were transferred to the pathology core facility of Memorial Sloan Kettering where they were sacrificed by cardiac puncture. Tissues obtained were fixed in 10% buffered formalin and were further processed for H&E staining and immunohistochemistry.
To model CAR T cell-induced CRS, conditions were established whereby a high number of CD19 CAR T cells engaged a high tumor burden and yielded overt toxicity within 2-3 days^2-5 (FIG. 1A). […] The overall levels of these cytokines, including mIL6, mCCL2, mG-CSF, hIL-3, hIFN-γ, hGM-CSF, hIL-2 correlated strongly with CRS severity and survival (FIGS. 1E-1L and 1S). The xenogeneic nature of this model was taken advantage of to discern the origin of these cytokines and chemokines. Thus, IL-6 was produced by endogenous murine cells while IFN-γ and GM-CSF were products of the CART cells. mIL6 and hIL6.^12, were not elevated in the absence of CART cells (FIGS. 1M-1O, 1T and 5D), establishing that this cardinal feature of CRS was the result a multicellular interaction and not the outcome of a T cell-tumor cell interaction.

[2] = system: iNOS; assay: iNOS expression in peritoneal macrophages by intracellular flow cytometry in CRS mice; assay type: in vivo, mouse; conditions: 18 hours post CAR T cell transfer
Protocol: as §1
Antibodies were titrated for optimal staining. The following fluorophore conjugated antibodies were used (“h” prefix denotes anti-human, “m” prefix denotes anti-mouse): hCD4 BUV395 (clone RPA-T4, BD), hCD8 PE-Cy7 (clone SK1, eBioscience), hCD3 PerCP-efluor710 (clone OKT3, eBioscience), hCD19 BUV737 (clone SJ25C1, BD), hLNGFR BB515 (clone C40-1457, BD), mF4/80 BV421 and BV711 (clone T45-2342, BD), mLy6C Alexa Fluor 647 and BV786 (clone ER-MP20, AbdSerotec and clone HK1.4, BioLegend respectively), mMHCII BB515 (clone 2G9, BD), mCD11c BV650 (clone N418, BioLegend), mLy6G APC-Fire750 (clone 1A8, BioLegend), mSIGLEC-F PE-CF594 (clone E50-2440, BD), mCD40 BV786 (clone 3/23, BD), mCD40L PE (clone MR1, BD), mCD11b BUV395 (clone M1/70, BD), mNOS2 PE-Cy7 (clone CXNFT, eBioscience). […]

[3] = system: cognate murine receptor; conditions: cytokines of human origin, cited from earlier work
[4] = system: cognate human receptor; conditions: cytokines of murine origin; cited from earlier work

## CC(=N)NCc1cccc(CN)c1 [1400W]
[1]
  Toxicity as witnessed by weight loss (percent weight change) under treatment: reversed toxicity
  CRS-associated mortality (percent survival) under treatment: significantly prevented mortality

## CC(=N)NCCCC[C@H](N)C(=O)O [L-NIL, L-N6-(1-iminoethyl)lysine]
[1]
  Toxicity as witnessed by weight loss (percent weight change) under treatment: robust reversal of toxicity

## Anakinra: IL-1Ra polypeptide used for IL-1 blockade
[1]
  CRS-associated mortality (percent survival) under treatment: completely abrogated CRS-related mortality
[2]
  iNOS+ macrophage fraction: similarly reduced

## GM-CSF: cytokine of human origin
[3]
  Human on mouse (active on the cognate murine receptor): lack of activity; also recorded: No^39

## IFNg: cytokine of human origin
[3]
  Human on mouse (active on the cognate murine receptor): No^38
[3]; listed as human IFN-γ
  Human on mouse (active on the cognate murine receptor): lack of activity

## IL-8: cytokine of human origin
[3]
  Human on mouse (active on the cognate murine receptor): Yes^40

## IL-10: cytokine of human origin
[3]
  Human on mouse (active on the cognate murine receptor): Yes^40

## IL-13: cytokine of human origin
[3]
  Human on mouse (active on the cognate murine receptor): Yes^40

## IL-17: cytokine of human origin
[3]
  Human on mouse (active on the cognate murine receptor): Yes^40

## TNFa
[3]
  Human on mouse (active on the cognate murine receptor): Partial^40
[3]; listed as Human TNF-α
  Human on mouse (active on the cognate murine receptor): can signal through the murine p55 TNF receptor but not the p75 TNF receptor

## human CD40L: CD40 ligand, mainly expressed by T cells
[3]
  Human on mouse (active on the cognate murine receptor): does not functionally interact

B1: IL-6: cytokine of murine origin (protein, UniProt P08505 25-211, looked up)
Interleukin-6: FPTSQVRRGDFTEDTTPNRPVYTTSQVGGLITHVLWEIVEMRKELCNGNSDCMNNDDALAENNLKLPEIQRNDGCYQTGYNQEICLLKISSGLLEYHSYLEYMKNNLKDNKKDKARVLQRDTETLIHIFNQEVKDLHKIVLPTPISNALLTDKLESQKEWLRTKTIQFILKSLEEFLKVTLRSTRQT
[4]
  Mouse on human (active on the cognate human receptor): No^39

B2: IL-15: cytokine of murine origin (protein, UniProt P48346 49-162, looked up)
Interleukin-15: NWIDVRYDLEKIESLIQSIHIDTTLYTDSDFHPSCKVTAMNCFLLELQVILHEYSNMTLNETVRNVLYLANSTLSSNKNVAESGCKECEELEEKTFTEFLQSFIRIVQMFINTS
[4]
  Mouse on human (active on the cognate human receptor): Yes^39

B3: IL-5: cytokine of murine origin (protein, UniProt P04401 21-133, looked up)
Interleukin-5: MEIPMSTVVKETLTQLSAHRALLTSNETMRLPVPTHKNHQLCIGEIFQGLDILKNQTVRGGTVEMLFQNLSLIKKYIDRQKEKCGEERRRTRQFLDYLQEFLGVMSTEWAMEG
[4]
  Mouse on human (active on the cognate human receptor): Yes^40
